Km data for 1 compound are collected here from publication PMC10279920, “Single-molecule visualization of Pif1 helicase translocation on single-stranded DNA” (The Journal of Biological Chemistry, 2023).

The structures appear in SMILES notation. Numbering of substitutions follows the chain as printed.

The target of assay [1] is T1, Pif1 (unlabeled, WT Pif1) (Saccharomyces cerevisiae, UniProt P07271).
T1 construct: nuclear isoform residues 40-859, pRSF-Duet-1, E. coli Rosetta2(DE3), Ni-NTA purified (tag not described), no GFP
T1 sequence (P07271 40-859): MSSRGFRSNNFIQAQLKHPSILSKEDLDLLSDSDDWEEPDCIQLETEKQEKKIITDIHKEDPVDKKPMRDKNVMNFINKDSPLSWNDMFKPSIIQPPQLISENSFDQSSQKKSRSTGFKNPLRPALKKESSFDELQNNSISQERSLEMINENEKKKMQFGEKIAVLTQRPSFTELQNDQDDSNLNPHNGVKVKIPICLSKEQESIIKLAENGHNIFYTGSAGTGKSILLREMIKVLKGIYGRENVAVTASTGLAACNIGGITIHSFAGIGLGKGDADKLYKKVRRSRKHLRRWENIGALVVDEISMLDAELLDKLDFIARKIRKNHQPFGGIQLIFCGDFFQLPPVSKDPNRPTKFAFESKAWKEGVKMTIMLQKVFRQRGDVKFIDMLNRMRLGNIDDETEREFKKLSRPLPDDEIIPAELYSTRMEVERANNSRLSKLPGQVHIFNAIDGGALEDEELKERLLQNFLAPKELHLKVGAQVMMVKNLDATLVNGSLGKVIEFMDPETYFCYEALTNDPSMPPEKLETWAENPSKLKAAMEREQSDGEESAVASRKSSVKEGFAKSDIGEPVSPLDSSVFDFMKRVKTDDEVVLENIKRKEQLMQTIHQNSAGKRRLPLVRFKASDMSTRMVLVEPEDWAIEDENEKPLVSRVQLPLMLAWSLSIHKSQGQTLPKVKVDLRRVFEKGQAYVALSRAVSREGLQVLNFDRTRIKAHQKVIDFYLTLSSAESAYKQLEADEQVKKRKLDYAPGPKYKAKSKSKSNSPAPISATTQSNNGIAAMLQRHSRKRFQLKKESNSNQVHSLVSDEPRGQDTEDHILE
In words: ATP hydrolysis, [γ-32P]-ATP TLC, Michaelis-Menten fit. The conditions noted are these: M13 ssDNA 1.5 μM nt, 10 nM Pif1, 5 mM MgCl2, 60 mM KCl, pH 7.5, 30 °C, no RPA; labelled compound as tracer. It is filed as biochemical. As for the experimental part:
ATP hydrolysis, [γ-32P]-ATP TLC, Michaelis-Menten fit on Pif1 (unlabeled, WT Pif1) | Values for Vmax, Km, and kcat were determined and compared to WT Pif1

The target in another assay is T2, GFP-Pif1 (Saccharomyces cerevisiae, UniProt P07271, V385A).
T2 construct: N-terminal superfolder GFP fusion of nuclear isoform residues 40-859, pRSF-Duet-1, E. coli Rosetta2(DE3), Ni-NTA purified
T2 sequence (P07271 40-859 V385A): T1 sequence (P07271 40-859) with V346A
The assay is described as above. It is filed as biochemical. The note with it: M13 ssDNA 1.5 μM nt, 10 nM Pif1, 5 mM MgCl2, 60 mM KCl, pH 7.5, 30 °C, no RPA; labelled compound as tracer.

Broadly, the Km is the substrate concentration at which the rate is half of its maximum. Regarding `Nc1ncnc2c1ncn2[C@@H]1O[C@H](COP(=O)(O)OP(=O)(O)OP(=O)(O)O)[C@@H](O)[C@H]1O` [ATP], the figures for the Michaelis-Menten constant (Km) (in assay [1]; at GFP-Pif1) were 490 ± 370 µM and 1280 ± 540 µM, respectively.
